Series [1] relates to Bovine microcirculatory endothelial cells (BMEC). As to the kind of experiment: Cytotoxicity test (sulforodamine B), BMEC. Format: cell-based. To be noted: read-out: IC50 ± SE. How it is done:
(§1) The cytotoxic effect of our derivatives was evaluated in series of human and murine cell lines.
Bovine microcirculatory endothelial cells (BMEC), isolated from bovine adrenal glands, were maintained in culture in DMEM containing 20% FBS, 50 μg/ml of bovine brain extract (BBE), 50 units/ml of heparin (SIGMA), 100 units/ml of gentami-cin (SIGMA) and 10 mg/ml of L-glutamine (Hyclone). EA-hy926, an immortalised hybridoma of HUVEC and adenocarcinoma cells, obtained from the University of Bari Department of Biomedical Sciences and Human Oncology, was cultured in DMEM added with 10% FBS and gentamicin.
(§2) For the cytotoxicity test the cells were seeded at variable densities according to cell type in 96-well plates in normal culture medium (200 μl/well) and incubated for 24 hours at 37° C. On the next day, the study substances were added at scalar concentrations and the cells were incubated for a further 24 hours at 37° C. in a humidified atmosphere containing 5% CO2. At the end of the incubation period the medium containing the substances was removed and three washings with PBS were performed. At the end of the washings 200 μl/well of fresh medium were added and the plates were incubated at 37° C. for a further 48 hours. At the end of this incubation period the culture medium was removed by overturning the plates and 200 μl/well of PBS and 50 μl of 80% cold trichloroacetic acid (TCA) were added. The plates were then incubated in ice. After 1 h the TCA was removed, the plates were washed three times by immersion in distilled water and dried first on blotting paper and then in the oven. 200 μl of 0.4% sulforodamine B in 1% acetic acid were then added to all wells. The plates were incubated at room temperature for a further 30 minutes. The sulforodamine B was removed by overturning, the plates were washed three times by immersion in 1% acetic acid, and then dried first on blotting paper and then in the oven. 200 μl of Tris base 10 mM were then added to all wells and the plates were placed under stirring for at least 20 min. The optical density was measured by spectrophotometric readout at 540 nm.
(§3) In the same table are reported the IC50 of ST2897, ST2898 and ST2899 on BMEC.

The subject of series [2] is human NCI-H460 lung cancer cells. Put plainly: Anticancer activity in animal model of human lung carcinoma (NCI-H460 s.c. in nude CD1 mice). Type of series: in vivo. The protocol: The anticancer activity of ST2495 and ST2496 was assayed in an animal model of human lung carcinoma.
In this model, human NCI-H460 lung cancer cells at a density of 3×10^6 cells/mouse were injected subcutaneously in the right flank of nude CD1 mice. […]
All the animals were weighed during the course of the treatment to adjust the drug administration volume and to record the percentage loss of body weight (% BWL).
Tumour growth was assessed by measuring the shorter diameter (width) and the longer diameter (length) of each tumour twice a week with a Vernier caliper, and the anticancer activity was evaluated in terms of percentage inhibition of tumour growth. The tumour volume was calculated using the following formula: tumour volume (TV) in mm^3=[length (mm)×width (mm)^2]/2. The percentage inhibition (% TVI) was calculated according to the following equation: 100−[(mean tumour volume of the treated group/mean tumour volume of the control group)×100]. A value of P≦0.05 was regarded as statistically significant.

The subject of series [3] is A2780 human ovarian carcinoma line. Put plainly: Cytotoxicity test (sulforodamine B), A2780. Type of series: cell-based. The protocol:
as §1
(§4) The M109 murine lung cancer line, the HT29 human colon adenocarcinoma line, the A2780 human ovarian carcinoma line, obtained from the Milan Tumour Institute, were cultured in RPMI containing 10% FBS and antibiotics.
as §2, §3

The subject of series [4] is MCF-7 human breast carcinoma. As to the kind of experiment: Cytotoxicity test (sulforodamine B), MCF-7. Type of series: cell-based. How it is done:
as §1
(§5) The following cell lines, purchased from ATCC, were cultured according to the manufacturer's instructions: MeWo human melanoma, NCI-H460 human lung cancer, LoVo human colon adenocarcinoma, PC3 human prostate carcinoma, MES-SA human uterine sarcoma, HCT 116 human colorectal carcinoma, MCF-7 human breast carcinoma.
as §2, §3

The test system of series [5] is MES-SA human uterine sarcoma. Put plainly: Cytotoxicity test (sulforodamine B), MES-SA. Format: cell-based. To be noted: read-out: IC50 ± SE. The protocol: as §1, §5, §2, §3
For series [6], the system named is HT29 human colon adenocarcinoma line. As to the kind of experiment: Cytotoxicity test (sulforodamine B), HT29. Format: cell-based. The protocol: as §1, §4, §2, §3
The subject of series [7] is Human umbilical vein endothelial cells (HUVEC). Put plainly: Cytotoxicity test (sulforodamine B), HUVEC. Format: cell-based. To be noted: read-out: IC50 ± SE. The protocol:
as §1
Human umbilical vein endothelial cells (HUVEC), from the BioWhittaker company, were maintained in EGM-2 culture medium (BioWhittaker).
as §2, §3

A short description of series [8]: Evaluation of cardiovascular parameters (blood pressure, heart rate) in anaesthetised rats. Format: in vivo. To be noted: 20 or 40 mg/kg injected in the jugular vein, anaesthetised Wistar rats (FIG. 1). How it is done:
Combretastatin A4, its prodrug ST2494 and our water soluble selected compounds ST2495 and ST2496, diluted at the doses of 20 or 40 mg/kg in saline solution or for combretastatin A4 in 5% DMSO, were injected in the jugular vein of Wistar rats anaesthetised with 55 mg/kg Nembutal. The parameter considered were blood pressure and heart rate.

In series [9] the test system is B16/BL6 murine melanoma line. Put plainly: Cytotoxicity test (sulforodamine B), B16/BL6. Format: cell-based. The protocol:
as §1
The B16/BL6 murine melanoma line, obtained from the M. Negri Institute in Milan, was cultured in DMEM containing 10% FBS and antibiotics.
as §2, §3

Series [10] relates to NCI-H460 human lung cancer. As to the kind of experiment: Cytotoxicity test (sulforodamine B), NCI-H460. Format: cell-based. How it is done: as §1, §5, §2, §3
The subject of a further series is MeWo human melanoma. As to the kind of experiment: Cytotoxicity test (sulforodamine B), MeWo. The settings on record: read-out: IC50 ± SE. Format: cell-based. How it is done:
as §1, §5, §2, §3

Series [11] deals with HCT 116 human colorectal carcinoma. As to the kind of experiment: Cytotoxicity test (sulforodamine B), HCT 116. Format: cell-based. How it is done:
as §1, §5, §2, §3

Setting [12] is: i.v. 60 mg/kg, q2dx6, day 5 to day 17.
Setting [13] is: i.v. 90 mg/kg, q2dx6, day 5 to day 17.
Setting [14] is: p.o. 30 mg/kg, qdx5/w, day 4 to day 14.
Where [15] appears, read: i.p. 30 mg/kg twice/day, qd5x/w, day 4 to day 22.
The mark [16] stands for this setting: i.p. 30 mg/kg, qd5x/w once a day, day 4 to day 22.
[17] abbreviates: i.v. 60 mg/kg, q2dx6, day 4 to day 16.
Where [18] appears, read: i.v. 90 mg/kg, q2dx6, day 4 to day 16.
Where [19] appears, read: p.o. 30 mg/kg twice/day, qd5x/w, day 4 to day 22.
Where [20] appears, read: p.o. 60 mg/kg twice/day, qd5x/w, day 4 to day 22.
The mark [21] stands for this setting: 24 h exposure, 48 h recovery, SRB.

Data on five compounds can be found in US20060160773A1, “Combretastatin derivatives with cytotoxic action” (priority 2003, published 2006).

Read-outs that look alike come from different tables or passages of the source. Marks after values point to notes of the source that are not given here. A value given as a limit tells only on which side of the number the result lay.

Turning to `COc1ccc(/C=C\c2cc(OC)c3occc3c2)cc1O` [ST2898, Cis-2-Methoxy-5-[2-(7-methoxy-benzofuran-5-yl)-vinyl]-phenol], in [1] (Bos taurus, Endothelial cell), the IC50 was 0.035 ± 0.0003 µM.
For `COc1cc(/C=C\c2cc(OP(=O)(O)O)c3ccoc3c2)cc(OC)c1OC` [ST2496, Disodium 6[(Z)-2-(3,4,5-trimethoxyphenyl)ethenyl]-1-benzo-furan-4-ol 4-O-phosphate], the “% BWL” value in [2] (setting [12]), in series [2] (setting [13]) and in series [2] (setting [14]) was 1% each time. The Mortality in series [2] (setting [12]), in series [2] (setting [13]) and in series [2] (setting [14]) was 0/8 throughout. The “% TVI” value in [2] (i.v. 60 mg/kg, q2dx6 day 5 to 17, day 14 after tumor inoculation) is recorded as 48** %; in series [2] (i.v. 60 mg/kg, q2dx6 day 5 to 17, day 21 after tumor inoculation) it was 53** %; in [2] (i.v. 90 mg/kg, q2dx6 day 5 to 17, day 14 after tumor inoculation) it was 57*** %; in [2] (i.v. 90 mg/kg, q2dx6 day 5 to 17, day 21 after tumor inoculation), 56** %; in series [2] (p.o. 30 mg/kg, qdx5/w day 4 to 14, day 14 after tumor inoculation) it was 48* %; in series [2] (p.o. 30 mg/kg, qdx5/w day 4 to 14, day 21 after tumor inoculation), 46* %. Besides, the IC50 in series [3] (Homo sapiens, A2780, read-out: IC50 ± SE) was 0.26 ± 0.006 µM; in [4] (Homo sapiens, MCF7, read-out: IC50 ± SE), 0.646 ± 0.029 µM; in series [5] (Homo sapiens, MES-SA), 0.5 ± 0.05 µM; in [6] (Homo sapiens, HT-29, read-out: IC50 ± SE), 3.9 ± 0.07 µM; in series [7] (Homo sapiens) it was 0.085 ± 0.0012 µM; in series [1] (Bos taurus, Endothelial cell) it was 0.34 ± 0.016 µM. In addition, the IC50 in series [9] (Mus musculus, B16-BL6, read-out: IC50 ± SE) is 4.14 ± 0.49 µM; in [10] (Homo sapiens, NCI-H460, read-out: IC50 ± SE) it was 0.78 ± 0.0034 µM; in the series on MeWo human melanoma (Homo sapiens) it was 0.82 ± 0.0077 µM; in [11] (Homo sapiens, HCT-116, read-out: IC50 ± SE) it was 1.68 ± 0.07 µM. Besides, in series [8], the blood pressure entry is on record as “did not show significant effect”. Also, the heart rate result in series [8] is “did not show significant effect”.
As for “Disodium 6[(Z)-2-(3,4,5-trimethoxyphenyl)ethenyl]-1-benzo-thiophen-4-ol-4-O-phospohate [ST2495]”, in series [2] (NCI-H460 in nude mice, i.p., p.o. and i.v. routes), the “anticancer activity (summary in words)” value is recorded as “proved active with all the administration routes”. In addition, the “% BWL” value in series [2] (setting [15]) amounted to 0%; in series [2] (setting [16]), 4%; in series [2] (setting [17]), 1%; in series [2] (setting [18]) it was 0%; in [2] (setting [19]), 0%; in series [2] (setting [20]), 1%. Further, the Mortality in series [2] (setting [15]), in series [2] (setting [16]), in series [2] (setting [17]), in series [2] (setting [18]), in series [2] (setting [19]) and in series [2] (setting [20]) was 0/8 each time. Further, the “% TVI” value is reported as 75** % in [2] (i.p. 30 mg/kg twice/day, qd5x/w, day 15 after tumor inoculation); 72** % in series [2] (i.p. 30 mg/kg twice/day, qd5x/w, day 22 after tumor inoculation); 32** % in [2] (i.p. 30 mg/kg, qd5x/w once a day, day 15 after tumor inoculation); 38* % in series [2] (i.p. 30 mg/kg, qd5x/w once a day, day 22 after tumor inoculation); 84** % in [2] (i.v. 60 mg/kg, q2dx6 day 4 to 16, day 15 after tumor inoculation); 73** % in series [2] (i.v. 60 mg/kg, q2dx6 day 4 to 16, day 22 after tumor inoculation). Also, the “% TVI” value is 81** % in series [2] (i.v. 90 mg/kg, q2dx6 day 4 to 16, day 15 after tumor inoculation); 62** % in [2] (i.v. 90 mg/kg, q2dx6 day 4 to 16, day 22 after tumor inoculation); 42** % in series [2] (p.o. 30 mg/kg twice/day, qd5x/w, day 15 after tumor inoculation); 30* % in series [2] (p.o. 30 mg/kg twice/day, qd5x/w, day 22 after tumor inoculation); 79** % in series [2] (p.o. 60 mg/kg twice/day, qd5x/w, day 15 after tumor inoculation); 67** % in series [2] (p.o. 60 mg/kg twice/day, qd5x/w, day 22 after tumor inoculation). The IC50 is 0.5 ± 0.02 µM in [3] (A2780, 24 h exposure, 48 h recovery, SRB, read-out: IC50 ± SE); 0.693 ± 0.021 µM in series [4] (MCF-7, 24 h exposure, 48 h recovery, SRB, read-out: IC50 ± SE); 1.42 ± 0.049 µM in [5] (MESSA, 24 h exposure, 48 h recovery, SRB); > 10 µM in series [6] (HT29, 24 h exposure, 48 h recovery, SRB, read-out: IC50 ± SE); 0.083 ± 0.00206 µM in series [7] (setting [21]); 0.64 ± 0.04 µM in series [1] (BMEC, 24 h exposure, 48 h recovery, SRB). Besides, the IC50 in series [9] (B16/BL6, 24 h exposure, 48 h recovery, SRB, read-out: IC50 ± SE) is > 10 µM; in series [10] (NCI-H460, 24 h exposure, 48 h recovery, SRB, read-out: IC50 ± SE), 0.62 ± 0.065 µM; in the series with MeWo human melanoma (setting [21]) it was 0.83 ± 0.00013 µM; in series [11] (HCT-116, 24 h exposure, 48 h recovery, SRB, read-out: IC50 ± SE) it was 3 ± 0.102 µM.
Turning to `COc1ccc(/C=C\c2cc(OC)c3ccsc3c2)cc1O` [ST2899, Cis-2-Methoxy-5-[2-(4-methoxy-benzo[b]thiophen-6-yl)-vinyl]-phenol], the IC50 in [1] (Bos taurus, Endothelial cell) is < 0.04 µM.
On the same count and under the same terms, as for `COc1ccc(/C=C\c2cc(OC)c3ccoc3c2)cc1O` [ST2897, Cis-2-Methoxy-5-[2-(4-methoxy-benzofuran-6-yl)-vinyl]-phenol], the figure is 0.035 ± 0.0018 µM.
